Measured values: patent US20140228440A1, “1-AMINO-ALKYLCYCLOHEXANE DERIVATIVES FOR THE TREATMENT OF INFLAMMATORY SKIN DISEASES” (MERZ PHARMA GmbH & CO. KGaA, priority 2008, published 2014)

Experiments:
Type in all cases: cell-based
[1] = system: Propionibacterium acnes; experiment: Log reduction assay; conditions: 3.125% solution
Protocol: In order to determine the efficacy of Neramexane against a specific microorganism population (i.e., Propionibacterium acnes), a log reduction assay is performed. The organisms are prepared by inoculating the fluid thioglycolate (FTM). The microorganism is then incubated at 35.2±2.5° C. for 24 hours. The microbial suspension is adjusted to approximately 107 to 108 colony forming units (CFU) per mL and labeled as the stock suspension. […] Then […] is transferred into 11 mL of DI water to prepare a 3.125% solution. This solution is then inoculated with the microorganism and tested at time intervals of 30 seconds, 1 minute, and 5 minutes. One milliliter from each dilution is spread plated in duplicate onto tryptic soy agar with 5% sheep blood. The plates are incubated anaerobically at 35.2±2.5° C. for a minimum of 48 hours. The same procedure is repeated for the Phosphate Buffer Saline control. After the incubation period, all plates are counted to determine the number of microorganisms remaining at each time point. The concentration of each microorganism for the control and product is calculated for each interval. The log reduction is calculated to determine the change (reduction or increase) of the microorganism population relative to a starting inoculum. The minimum required bactericidal concentration is defined as a 3 log reduction from the initial inoculum.

[2] = system: Streptococcus pyogenes ATCC 12344; experiment: MIC by the agar dilution method; conditions: pH 5.5
Protocol: (§1) To assess the anti-microbial potency of Neramexane against bacteria strains which are relevant for atopic dermatitis and localized skin infections (“impetigo”), the minimal inhibitory concentration (MIC) against the following bacteria is established:
(§2) The MICs of the samples are determined using the agar dilution method based on DIN 58940. Petri dishes of 5.5 cm diameter are poured with 2.5 ml of freshly prepared Mueller-Hinton agar 2-fold concentrated (Merck company, Cat-No 1.05437), pH 5.5, maintained in liquid form at 50° C., to which the sample dilutions at various concentrations has been added at 50.0 vol.-%.
(§3) Neramexane-Mesylate is tested in the concentration range of 6.25-1*10^−2%. All test solutions are adjusted to pH 5.5.
(§4) For inoculation, 1 μl of the respective germ suspension is placed on the centre of each agar plate. After drying, inoculated plates are incubated at 36.0±2.0° C. The basis for the length of incubation period is the respective growth control cultivated in parallel.
(§5) The test microbe suspension is prepared by inoculating a few individual colonies of the respective bacteria into sterile saline solution until a turbidity corresponding to the McFarland standard 1.0 (approximately 10^8 cfu/ml) is reached. After that, the test microbe suspensions are further diluted 1:10 with saline solution and the microbial counts (see Table 33) are determined by the surface spread method using a spiral plater.
(§6) The agar plates are incubated under the conditions given in Table 34 and subsequently evaluated. The MIC-values as given represent the lowest concentration of the active substance at which there is no macroscopically visible growth. Minimal, barely visible growth or few small individual colonies are evaluated as inhibition.
(§7) The growth of bacteria is indicated for the duplicate plates by a +(i.e., growth) or a −(i.e., no growth), +− indicates weak growth on both plates or growth on one plate and no growth on the other plate. Both bacteria-strains show appropriate growth on the respective control plate not containing any test compound. No influence of the used diluent (Aqua purifacata) is observed. No contamination is observed on the control-plates. In general it has to be considered that values determined by the used method can vary by a factor of 2 (for 1:2 dilutions).

[3] = system: Staphylococcus aureus ATCC 6538; experiment: MIC by the agar dilution method; conditions: pH 5.5
Protocol: as §1, §2, §3, §4, §5, §6, §7

[4] = system: Propionibacterium acnes (ATCC 11828); experiment: Quantitative suspension assay (bactericidal activity); conditions: pH 5.5
Protocol: 1.0 ml of the bacterial test suspension (microbial count: 1.5−5.0×10^8 cfu/ml) and 1.0 ml distilled water is added to 8.0 ml of the product test solution. The stopwatch is started. At the end of the exposure time, 0.1 ml of the test mixture is added to 50 ml rinsing liquid (=test neutralization mixture, TNM, 10°). Two dilutions of the TNM are prepared by pipetting […] of TNM to 9.0 ml of tryptone-NaCl (represents a dilution 10^−2 of TNM before filtration) resp. 50 μl of TNM to 9.0 ml of tryptone-NaCl (represents a dilution 10^−3 of TNM before filtration). The TNM (in duplicate) and each of the dilutions are transferred to a membrane filter device fitted with a membrane filter (0.45 μm) and filtered immediately. Subsequently, the filter is washed with 150 ml distilled water. The membranes are transferred to agar plates. After incubation under appropriate conditions, colonies are counted and reported.
Neramexane-mesylate is tested at 4 different concentrations (w/w 0.1%, 0.5%, 2.0%, 5.0%) to assess its bactericidal activity against Propionibacterium acnes (ATCC 11828). In addition to the effect of the concentration of Neramexane, the relevance of the contact time with the bacterias is assessed at 4 different incubation times (5 min, 30 min, 6 h, 24 h).
After the desired incubation time, the complete elimination of the test compound from the assay is ensured by membrane filtration. Bacterial suspensions with a microbial count ranging from 1.5−5.0×10^8 cfu/ml are used. All assays are performed at the skin relevant pH of 5.5.
The read out is reduction of the bacterial number in the assay, expressed as log-reduction. This reduction of the bacterial count is correlated to the ability of a compound to kill the bacteria, thus, corresponding to its MBC value. A >5-fold log reduction is required for a surface-disinfection compound and a >3-fold log reduction for a hand-disinfection compound.

growth of bacteria on duplicate plates (MIC determination) ([2]; final concentration 0.01 %): + + | growth of bacteria on duplicate plates (MIC determination) ([2]; final concentration 0.04 %): + + | growth of bacteria on duplicate plates (MIC determination) ([2]; final concentration 0.08 %): − − | growth of bacteria on duplicate plates (MIC determination) ([2]; final concentration 0.16 %): − − | growth of bacteria on duplicate plates (MIC determination) ([2]; final concentration 0.31 %): − − | growth of bacteria on duplicate plates (MIC determination) ([2]; final concentration 0.63 %): − − | growth of bacteria on duplicate plates (MIC determination) ([2]; final concentration 1.56 %): − − | growth of bacteria on duplicate plates (MIC determination) ([2]; final concentration 2.50 %): − − | growth of bacteria on duplicate plates (MIC determination) ([2]; final concentration 3.13 %): − − | growth of bacteria on duplicate plates (MIC determination) ([2]; final concentration 6.25 %): − − | MIC [2]: 0.08% | growth of bacteria on duplicate plates (MIC determination) ([3]; final concentration 0.01 %): + + | growth of bacteria on duplicate plates (MIC determination) ([3]; final concentration 0.04 %): + + | growth of bacteria on duplicate plates (MIC determination) ([3]; final concentration 0.08 %): + + | growth of bacteria on duplicate plates (MIC determination) ([3]; final concentration 0.16 %): + + | growth of bacteria on duplicate plates (MIC determination) ([3]; final concentration 0.31 %): + + | growth of bacteria on duplicate plates (MIC determination) ([3]; final concentration 0.63 %): + − | growth of bacteria on duplicate plates (MIC determination) ([3]; final concentration 1.56 %): − − | growth of bacteria on duplicate plates (MIC determination) ([3]; final concentration 2.50 %): − − | growth of bacteria on duplicate plates (MIC determination) ([3]; final concentration 3.13 %): − − | growth of bacteria on duplicate plates (MIC determination) ([3]; final concentration 6.25 %): − − | MIC [3]: 1.56%
SMILES: CC1(C)CC(C)(C)CC(C)(N)C1.CS(=O)(=O)O [Neramexane mesylate]
% Reduction ([1]; exposure time 30 sec): 91.6% | Concentration of Organism (CFU/mL) ([1]; exposure time 30 sec): 1.8E+04 CFU/mL | Log Reduction ([1]; exposure time 30 sec): 1.1 | % Reduction ([1]; exposure time 1 min): 79.0% | Concentration of Organism (CFU/mL) ([1]; exposure time 1 min): 4.4E+04 CFU/mL | Log Reduction ([1]; exposure time 1 min): 0.7 | % Reduction ([1]; exposure time 5 min): 100.0% | Concentration of Organism (CFU/mL) ([1]; exposure time 5 min): <10 CFU/mL | Log Reduction ([1]; exposure time 5 min): 4.3 | log-reduction ([4]; 0.1%, contact time 5 min): <1.41 | log-reduction ([4]; 0.1%, contact time 30 min): <1.41 | log-reduction ([4]; 0.1%, contact time 6 h): <1.41 | log-reduction ([4]; 0.1%, contact time 24 h): <1.41 | log-reduction ([4]; 0.5%, contact time 5 min): <1.41 | log-reduction ([4]; 0.5%, contact time 30 min): <1.41 | log-reduction ([4]; 0.5%, contact time 6 h): 2.6 | log-reduction ([4]; 2.0%, contact time 5 min): <1.41 | log-reduction ([4]; 2.0%, contact time 6 h): >5.48 | log-reduction ([4]; 2.0%, contact time 24 h): >5.48 | log-reduction ([4]; 5.0%, contact time 5 min): 4.33 | log-reduction ([4]; 5.0%, contact time 30 min): >5.48 | log-reduction ([4]; 5.0%, contact time 6 h): >5.48 | log-reduction ([4]; 5.0%, contact time 24 h): >5.48
